Measured values from article PMC7724566, “Prospects for Clinical Development of Stat5 Inhibitor IST5-002: High Transcriptomic Specificity in Prostate Cancer and Low Toxicity In Vivo” (Cancers, 2020).

What was measured:
JAK2 = JAK2 (Homo sapiens, UniProt O60674); assay: Radiometric filtration binding cell-free kinase assay; format: biochemical; parameters: purchased Reaction Biology (JAK1/2/3, TYK2); Luceome Biotechnologies KinaseSeeker (others); settings: percent activity of kinase after exposure to IST5 1 µM
Sequence of JAK2 (O60674 whole entry, the tested form may be a part): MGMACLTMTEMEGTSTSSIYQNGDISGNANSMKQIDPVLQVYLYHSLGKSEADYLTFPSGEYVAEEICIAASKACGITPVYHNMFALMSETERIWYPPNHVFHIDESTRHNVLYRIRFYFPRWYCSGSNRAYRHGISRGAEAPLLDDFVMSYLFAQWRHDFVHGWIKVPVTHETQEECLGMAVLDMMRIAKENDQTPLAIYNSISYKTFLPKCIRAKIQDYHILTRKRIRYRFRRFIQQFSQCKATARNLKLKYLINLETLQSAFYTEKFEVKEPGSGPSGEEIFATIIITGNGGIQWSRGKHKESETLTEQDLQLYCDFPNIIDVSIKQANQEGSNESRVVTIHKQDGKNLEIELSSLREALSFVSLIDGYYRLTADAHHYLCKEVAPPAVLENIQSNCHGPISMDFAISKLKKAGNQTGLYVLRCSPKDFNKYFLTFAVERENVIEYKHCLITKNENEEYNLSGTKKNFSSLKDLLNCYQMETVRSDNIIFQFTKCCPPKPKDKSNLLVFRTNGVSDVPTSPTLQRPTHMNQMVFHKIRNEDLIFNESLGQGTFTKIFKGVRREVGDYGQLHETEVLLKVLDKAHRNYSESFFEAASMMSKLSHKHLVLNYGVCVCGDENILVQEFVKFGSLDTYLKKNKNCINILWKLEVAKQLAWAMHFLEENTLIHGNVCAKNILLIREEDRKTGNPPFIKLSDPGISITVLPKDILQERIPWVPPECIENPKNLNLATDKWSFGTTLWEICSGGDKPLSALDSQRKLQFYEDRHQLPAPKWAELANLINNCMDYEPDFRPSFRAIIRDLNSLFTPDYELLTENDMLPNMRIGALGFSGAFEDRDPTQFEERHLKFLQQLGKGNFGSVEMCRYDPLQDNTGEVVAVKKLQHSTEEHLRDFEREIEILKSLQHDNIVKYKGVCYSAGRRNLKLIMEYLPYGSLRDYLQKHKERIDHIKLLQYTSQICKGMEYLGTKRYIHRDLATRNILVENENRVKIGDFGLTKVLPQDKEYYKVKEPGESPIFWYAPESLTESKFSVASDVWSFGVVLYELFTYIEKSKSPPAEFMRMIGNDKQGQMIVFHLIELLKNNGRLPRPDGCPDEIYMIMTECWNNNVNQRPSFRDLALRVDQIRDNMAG
Method: (§1) For Jak1, Jak2, Jak3 and Tyk2, a radiometric filtration binding assay was conducted by Reaction Biologicals (Malvern, PA, USA) (Table 1). This radiometric assay is a cell-free assay which is based on conventional filter-binding assays, directly measuring kinase catalytic activity toward a specific substrate. For evaluation of the activity of the other kinases, the Kinase Seeker Technology was utilized (Luceome Biotechnologies, Tucson, AZ, USA), which is a luminescence-based cell-free assay. In this assay, the reassembly of luciferase fragments is mediated by the interaction of a kinase with an active site-dependent probe. The competitive displacement of the probe by an inhibitor is measured by a change in luminescence signal. Percent activity of each kinase after exposure to IST5 (1 µM) is presented.

TYK2 = TYK2 (Homo sapiens, UniProt P29597); assay: as above; format: biochemical; parameters: purchased Reaction Biology (JAK1/2/3, TYK2); Luceome Biotechnologies KinaseSeeker (others); settings: percent activity of kinase after exposure to IST5 1 µM
Sequence of TYK2 (P29597 whole entry): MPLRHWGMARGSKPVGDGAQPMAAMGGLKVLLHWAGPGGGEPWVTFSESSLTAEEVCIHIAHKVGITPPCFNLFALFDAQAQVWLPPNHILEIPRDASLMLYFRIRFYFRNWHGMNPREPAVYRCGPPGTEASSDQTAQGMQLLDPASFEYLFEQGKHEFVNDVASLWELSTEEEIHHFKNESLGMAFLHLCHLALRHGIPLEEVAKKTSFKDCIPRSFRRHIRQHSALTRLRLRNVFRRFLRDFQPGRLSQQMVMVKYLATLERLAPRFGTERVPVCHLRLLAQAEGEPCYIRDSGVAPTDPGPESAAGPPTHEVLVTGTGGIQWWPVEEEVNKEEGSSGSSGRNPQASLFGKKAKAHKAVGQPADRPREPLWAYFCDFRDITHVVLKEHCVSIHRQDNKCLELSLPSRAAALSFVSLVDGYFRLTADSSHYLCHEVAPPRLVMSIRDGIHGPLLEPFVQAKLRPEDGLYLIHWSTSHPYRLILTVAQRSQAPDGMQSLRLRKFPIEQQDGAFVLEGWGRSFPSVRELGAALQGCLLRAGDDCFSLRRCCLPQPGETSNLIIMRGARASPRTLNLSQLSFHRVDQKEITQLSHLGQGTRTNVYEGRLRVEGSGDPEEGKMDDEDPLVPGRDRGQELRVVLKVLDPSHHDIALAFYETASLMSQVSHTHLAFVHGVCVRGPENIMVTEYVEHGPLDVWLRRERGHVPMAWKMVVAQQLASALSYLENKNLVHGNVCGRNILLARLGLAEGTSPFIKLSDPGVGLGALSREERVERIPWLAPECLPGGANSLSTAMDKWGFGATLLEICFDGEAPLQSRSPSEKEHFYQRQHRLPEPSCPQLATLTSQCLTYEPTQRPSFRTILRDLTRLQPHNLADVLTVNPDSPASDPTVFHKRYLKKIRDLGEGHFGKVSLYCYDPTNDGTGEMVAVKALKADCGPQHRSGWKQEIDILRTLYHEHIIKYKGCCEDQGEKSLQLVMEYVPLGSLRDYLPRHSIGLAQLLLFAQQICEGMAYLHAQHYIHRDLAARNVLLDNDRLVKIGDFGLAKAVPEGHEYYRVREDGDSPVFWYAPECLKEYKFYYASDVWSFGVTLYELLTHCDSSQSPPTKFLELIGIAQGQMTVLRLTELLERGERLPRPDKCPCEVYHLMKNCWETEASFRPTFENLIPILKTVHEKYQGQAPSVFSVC
Method: as §1

JAK1 = JAK1 (Homo sapiens, UniProt P23458); assay: as above; format: biochemical; parameters: purchased Reaction Biology (JAK1/2/3, TYK2); Luceome Biotechnologies KinaseSeeker (others); settings: percent activity of kinase after exposure to IST5 1 µM
Sequence of JAK1 (P23458 whole entry): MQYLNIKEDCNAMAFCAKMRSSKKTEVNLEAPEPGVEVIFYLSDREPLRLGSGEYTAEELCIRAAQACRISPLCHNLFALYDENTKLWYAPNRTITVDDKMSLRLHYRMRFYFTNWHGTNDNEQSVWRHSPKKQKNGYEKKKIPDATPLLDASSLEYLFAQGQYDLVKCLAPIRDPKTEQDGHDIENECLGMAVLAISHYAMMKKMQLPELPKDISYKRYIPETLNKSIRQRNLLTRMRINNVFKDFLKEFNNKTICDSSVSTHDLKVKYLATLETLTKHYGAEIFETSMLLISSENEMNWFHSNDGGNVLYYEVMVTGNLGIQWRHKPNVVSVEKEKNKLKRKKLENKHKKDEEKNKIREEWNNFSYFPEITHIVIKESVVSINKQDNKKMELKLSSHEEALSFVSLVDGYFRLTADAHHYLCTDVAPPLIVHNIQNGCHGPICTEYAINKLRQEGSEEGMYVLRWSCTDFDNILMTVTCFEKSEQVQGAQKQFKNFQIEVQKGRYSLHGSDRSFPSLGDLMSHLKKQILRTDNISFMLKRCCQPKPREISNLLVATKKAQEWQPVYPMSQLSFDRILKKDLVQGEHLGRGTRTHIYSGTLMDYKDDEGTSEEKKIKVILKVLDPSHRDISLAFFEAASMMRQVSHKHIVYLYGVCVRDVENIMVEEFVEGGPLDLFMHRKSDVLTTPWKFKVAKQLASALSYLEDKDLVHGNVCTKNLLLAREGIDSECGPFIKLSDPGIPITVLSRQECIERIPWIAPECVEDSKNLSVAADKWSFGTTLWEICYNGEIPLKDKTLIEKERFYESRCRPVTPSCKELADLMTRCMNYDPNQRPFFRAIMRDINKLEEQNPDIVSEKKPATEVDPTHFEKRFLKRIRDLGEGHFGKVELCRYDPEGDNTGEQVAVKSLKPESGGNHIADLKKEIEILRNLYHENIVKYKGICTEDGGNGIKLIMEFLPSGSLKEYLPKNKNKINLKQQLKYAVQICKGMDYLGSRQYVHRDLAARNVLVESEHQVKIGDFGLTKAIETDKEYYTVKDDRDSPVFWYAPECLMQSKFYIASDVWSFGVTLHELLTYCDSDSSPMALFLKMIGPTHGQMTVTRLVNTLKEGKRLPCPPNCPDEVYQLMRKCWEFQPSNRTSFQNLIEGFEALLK
Method: as §1

C57BL/6j mice = assay: Sub-chronic toxicity study (10 days), plasma biochemistry; format: in vivo; settings: daily i.p. 10 days; for A-G Ratio / ALT / AST / Albumin / Alk.Ptase / Bile Acid / Chol / TBIL / Globulin / BUN: plasma; for Globulin: in g/dL (unit assumed); for BUN: in mg/dL (unit assumed)
Method: The sub-chronic toxicity study (10 days) was carried out in C57BL/6J mice (8 weeks) (stock 000664) (n = 10/dose group 5 of each sex). IST5 was administered daily (0, 10, 30 and 100 mg/kg) via i.p. injection. Vehicle (0 mg/kg) group mice received a single i.p. injection of 0.3% hydroxypropyl cellulose. Plasma samples were analyzed for aspartate aminotransferase (AST), alanine aminotransferase (ALT), sorbitol dehydrogenase (SDH), alkaline phosphatase (ALP), γ-lutamyltransferase (GGT), lactate dehydrogenase (LDH), bilirubin (TBIL), protein (TP), glucose (GLU), blood urea nitrogen (BUN), creatinine (CREAT), and electrolytes (Na, K, Cl, Ca, CO2) (Marshfield Labs, WI, USA). A detailed hematological analysis was carried out on the sub-mandibular blood samples of mice collected at the end of the protocol and analyzed for white blood cells, red blood cells, hemoglobin, lymphocyte counts, monocytes, eosinophils and granulocytes. Brain, liver, heart, kidney and spleen were harvested, weighed and fixed in 10% buffered formalin and processed for histopathological analysis. In histopathological analysis, gross morphology and ultra-structural change were assessed. The clinical chemistry parameters measured were the same as those used for the acute toxicity study.

[1] = test system: chronic myeloid leukemia (CML) cells; parameters: method as in PMID 26026053; settings: cited from earlier work
Stat5 = Stat5 phosphorylation in K562 cells (immunoblot); format: cell-based, human; settings: 4 days
Method: In order to evaluate whether the phosphate group of IST5 is critical for IST5 activity in cell-based assays, we compared the potency of IST5 (Figure 4A) to that of IST5-M (IST5 without the phosphate group) (Figure 4B) in inhibiting phosphorylation of Stat5 in PC and CML cells. CML (K562) cells and PC (CWR22Rv1) cells were cultured for 4 days with increasing concentrations of IST5 and IST5-M (Figure 4C,D). […] Collectively, these finding indicate that IST5 and IST5-M have similar efficacies in inhibiting phosphorylation of Stat5 in both CML and PC cells.
Figure 4 IST5 and the IST5-derivative lacking the phosphate group (IST5-M), both, inhibit Stat5 phosphorylation in CML and prostate cancer cell line with high efficacy. (A), chemical structure of IST5-002 (IST5). (B), chemical structure of IST5-M (IST5 without the phosphate group. (C), IST5 and IST5-M both inhibit Stat5 phosphorylation in CML cells (K562) with high efficacy. K562 cells were treated with IST5 and IST5-M for 4 days at the concentrations indicated. Whole cell lysates (WCL) were immunoblotted with anti-pYStat5 mAb, anti-Stat5 mAb and anti-actin mAb as loading control. (D), IST5 and IST5-M, both, decrease Stat5 phosphorylation in PC cells (CWR22Rv1). CWR22Rv1 cells were treated with increasing concentrations of IST5 and IST5-M for 4 days. Stat5 was immunoprecipitated (IP) followed by immunoblotting (WB) with anti-pYStat5 mAb and anti-Stat5 mAb. Whole cell lysates (WCL) were immunoblotted with anti-actin mAb as loading control.
Cell pellets were solubilized in the lysis buffer (10 mM Tris-HCl (pH 7.6), 5 mM EDTA, 50 mM sodium chloride, 30 mM sodium pyrophosphate, 50 mM sodium fluoride, 1 mM sodium orthovanadate, 1% Triton X-100, 1 mM phenylmethylsulfonyl fluoride, 5 µg/mL aprotinin, 1 µg/mL pepstatin A and 2 µg/mL leupeptin), and protein concentrations of clarified cell lysates were determined by a simplified Bradford method (Bio-Rad, Hercules, CA, USA). The whole cell lysates were immunoprecipitated with polyclonal antibodies (Table S1) followed by incubation with protein A-Sepharose beads (GE Healthcare, Chicago, IL, USA). The cell lysates and immunoprecipitated proteins were separated on 4–12% SDS-PAGE (Life Technologies, Brown Deer, WI, USA) and transferred electrophoretically to polyvinylidene fluoride membrane (Millipore). For immunoblotting, blocking buffer was tris-buffered saline and tween 20 (TBST, 0.15 M NaCl; 0.1% Tween 20; 50 mM Tris, pH 8.0) with 3% bovine serum albumin (BSA). The immunoreaction with the specific antibodies (Table S1) was detected by horseradish peroxidase-conjugated secondary antibodies followed by enhanced chemiluminescence (GE Healthcare).

SMILES: O=P(O)(O)OCC1OC(n2cnc3c(NCc4ccccc4)ncnc32)C(O)C1O (stereo not drawn) [IST5]
- Activity (JAK2): 95.4%
- Activity (TYK2): 100.0%
- Activity (JAK1): 96.2%
- BW (C57BL/6j mice; 10 mg/kg): 22.5 ± 1.1 gm
- HCT (C57BL/6j mice; 10 mg/kg): 0.43 ± 0.02 L/L
- A-G Ratio (C57BL/6j mice; 10 mg/kg): 1.93 ± 0.08
- ALT (C57BL/6j mice; 10 mg/kg): 50.4 ± 3.71 U/L
- AST (C57BL/6j mice; 10 mg/kg): 329.9 ± 30.9 U/L
- Albumin (C57BL/6j mice; 10 mg/kg): 2.69 ± 0.05 g/dL
- Alk.Ptase (C57BL/6j mice; 10 mg/kg): 51.3 ± 0.72 U/L
- Bile Acid (C57BL/6j mice; 10 mg/kg): 21.0 ± 12.7 µmol/dL
- Chol (C57BL/6j mice; 10 mg/kg): 65.0 ± 2.09 mg/dL
- TBIL (C57BL/6j mice; 10 mg/kg): 0.26 ± 0.02 mg/dL
- Globulin (C57BL/6j mice; 10 mg/kg): 1.41 ± 0.04
- BUN (C57BL/6j mice; 10 mg/kg): 20.5 ± 0.82
- BW (C57BL/6j mice; 30 mg/kg): 23.5 ± 0.6 gm
- HCT (C57BL/6j mice; 30 mg/kg): 0.45 ± 0.01 L/L
- A-G Ratio (C57BL/6j mice; 30 mg/kg): 1.9 ± 0.11
- ALT (C57BL/6j mice; 30 mg/kg): 45.2 ± 3.76 U/L
- AST (C57BL/6j mice; 30 mg/kg): 336 ± 57.1 U/L
- Albumin (C57BL/6j mice; 30 mg/kg): 2.74 ± 0.07 g/dL
- Alk.Ptase (C57BL/6j mice; 30 mg/kg): 53.0 ± 1.93 U/L
- Bile Acid (C57BL/6j mice; 30 mg/kg): 2.39 ± 0.32 µmol/dL
- Chol (C57BL/6j mice; 30 mg/kg): 70.3 ± 1.38 mg/dL
- TBIL (C57BL/6j mice; 30 mg/kg): 0.21 ± 0.01 mg/dL
- Globulin (C57BL/6j mice; 30 mg/kg): 1.47 ± 0.07
- BUN (C57BL/6j mice; 30 mg/kg): 25 ± 1.32
- efficacy in CML cells [1]: remarkable efficacy
- inhibition of Stat5 phosphorylation (Stat5; 2 µM, K562 cells): 75–90%
- IC50 (Stat5; read-out: IC50, inhibition of Stat5 phosphorylation, K562 CML cells): ~1.1 µM
